Test results reported in ChEMBL document CHEMBL5131538 (J Med Chem, 2022).

What was measured:
Glucocorticoid receptor [1] = biological target: T1, Glucocorticoid receptor (Rattus norvegicus, UniProt P06536); test: Displacement of [3H]-dexamethasone from rat glucocorticoid receptor incubated overnight by liquid scintillation counting analysis
T1 sequence (P06536 whole entry): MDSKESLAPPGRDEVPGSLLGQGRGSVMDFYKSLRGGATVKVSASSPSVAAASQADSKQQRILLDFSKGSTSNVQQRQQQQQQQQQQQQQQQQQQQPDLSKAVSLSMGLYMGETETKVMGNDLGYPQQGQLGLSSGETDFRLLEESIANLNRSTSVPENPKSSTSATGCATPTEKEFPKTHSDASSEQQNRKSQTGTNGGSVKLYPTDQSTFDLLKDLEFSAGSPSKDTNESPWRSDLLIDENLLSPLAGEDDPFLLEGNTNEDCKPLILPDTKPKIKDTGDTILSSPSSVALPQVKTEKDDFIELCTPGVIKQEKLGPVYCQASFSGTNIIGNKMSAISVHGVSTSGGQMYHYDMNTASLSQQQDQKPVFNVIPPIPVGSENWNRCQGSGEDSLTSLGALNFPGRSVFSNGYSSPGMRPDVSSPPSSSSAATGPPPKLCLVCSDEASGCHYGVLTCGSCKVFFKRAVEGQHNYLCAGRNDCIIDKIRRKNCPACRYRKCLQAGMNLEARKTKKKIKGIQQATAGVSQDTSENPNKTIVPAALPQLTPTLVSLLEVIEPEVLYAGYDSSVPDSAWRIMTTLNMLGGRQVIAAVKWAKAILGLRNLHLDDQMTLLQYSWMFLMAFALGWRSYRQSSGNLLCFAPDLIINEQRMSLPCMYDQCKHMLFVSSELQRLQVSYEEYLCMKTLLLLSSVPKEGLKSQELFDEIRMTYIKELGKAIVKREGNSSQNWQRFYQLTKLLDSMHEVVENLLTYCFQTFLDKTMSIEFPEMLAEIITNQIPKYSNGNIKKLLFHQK

[2] = biological target: T2, Mineralocorticoid receptor (Rattus norvegicus, UniProt P22199)
T2 sequence (P22199 whole entry): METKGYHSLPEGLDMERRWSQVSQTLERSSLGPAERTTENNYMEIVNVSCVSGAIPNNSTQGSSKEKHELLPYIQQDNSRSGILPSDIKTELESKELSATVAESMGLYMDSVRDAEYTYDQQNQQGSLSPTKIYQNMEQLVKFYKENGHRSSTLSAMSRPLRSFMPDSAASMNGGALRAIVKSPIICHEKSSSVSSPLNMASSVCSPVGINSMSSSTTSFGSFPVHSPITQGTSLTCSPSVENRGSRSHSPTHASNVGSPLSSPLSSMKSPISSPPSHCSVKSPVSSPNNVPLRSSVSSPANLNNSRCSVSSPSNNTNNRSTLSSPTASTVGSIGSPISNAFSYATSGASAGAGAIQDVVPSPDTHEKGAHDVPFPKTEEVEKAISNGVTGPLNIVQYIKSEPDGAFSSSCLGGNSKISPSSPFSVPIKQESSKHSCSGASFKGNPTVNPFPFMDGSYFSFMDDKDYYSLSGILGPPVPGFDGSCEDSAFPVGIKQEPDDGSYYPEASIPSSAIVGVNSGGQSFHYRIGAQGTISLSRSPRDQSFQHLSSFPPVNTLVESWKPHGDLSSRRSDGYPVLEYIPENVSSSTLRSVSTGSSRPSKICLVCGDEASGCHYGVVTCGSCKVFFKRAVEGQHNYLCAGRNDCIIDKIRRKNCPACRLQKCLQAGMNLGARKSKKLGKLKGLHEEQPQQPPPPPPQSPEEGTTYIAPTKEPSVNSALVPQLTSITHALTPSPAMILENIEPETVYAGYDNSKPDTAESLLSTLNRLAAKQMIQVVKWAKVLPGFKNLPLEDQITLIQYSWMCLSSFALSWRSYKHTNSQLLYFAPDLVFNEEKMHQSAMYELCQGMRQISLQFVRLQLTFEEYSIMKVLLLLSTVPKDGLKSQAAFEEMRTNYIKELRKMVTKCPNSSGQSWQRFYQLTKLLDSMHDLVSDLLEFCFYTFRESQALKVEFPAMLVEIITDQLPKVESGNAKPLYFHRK
Description: Displacement of [3H]-aldosterone from rat mineralocorticoid receptor incubated overnight by liquid scintillation counting analysis

[3] = biological target: T3, Mineralocorticoid receptor (Homo sapiens, UniProt P08235); test: biochemical
T3 sequence (P08235 whole entry): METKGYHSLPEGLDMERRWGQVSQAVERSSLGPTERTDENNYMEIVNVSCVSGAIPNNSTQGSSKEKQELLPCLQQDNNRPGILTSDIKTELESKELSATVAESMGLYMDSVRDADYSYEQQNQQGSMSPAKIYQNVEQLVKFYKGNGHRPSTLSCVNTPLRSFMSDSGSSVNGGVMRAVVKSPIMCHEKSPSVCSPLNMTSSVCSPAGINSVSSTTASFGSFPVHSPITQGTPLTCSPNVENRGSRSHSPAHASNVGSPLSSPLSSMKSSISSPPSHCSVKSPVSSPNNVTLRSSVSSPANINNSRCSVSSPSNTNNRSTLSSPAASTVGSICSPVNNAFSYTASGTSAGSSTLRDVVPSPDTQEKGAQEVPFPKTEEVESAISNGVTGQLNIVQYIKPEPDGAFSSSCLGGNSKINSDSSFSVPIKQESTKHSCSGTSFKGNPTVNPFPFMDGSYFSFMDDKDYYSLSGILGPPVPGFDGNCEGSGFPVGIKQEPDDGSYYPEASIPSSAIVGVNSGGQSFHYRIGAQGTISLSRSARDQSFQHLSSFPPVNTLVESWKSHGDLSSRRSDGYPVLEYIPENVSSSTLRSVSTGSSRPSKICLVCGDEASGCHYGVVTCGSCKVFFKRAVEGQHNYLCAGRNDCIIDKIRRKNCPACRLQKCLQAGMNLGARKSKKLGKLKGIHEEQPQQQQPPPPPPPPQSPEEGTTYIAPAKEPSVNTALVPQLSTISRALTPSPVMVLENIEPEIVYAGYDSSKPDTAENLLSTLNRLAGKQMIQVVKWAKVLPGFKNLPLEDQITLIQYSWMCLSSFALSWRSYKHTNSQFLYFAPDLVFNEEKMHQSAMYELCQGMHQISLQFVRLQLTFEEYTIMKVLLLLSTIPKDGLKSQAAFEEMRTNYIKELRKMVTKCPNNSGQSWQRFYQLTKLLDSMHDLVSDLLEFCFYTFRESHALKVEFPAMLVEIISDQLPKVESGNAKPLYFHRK
Description: Displacement of [3H]-aldosterone from recombinant human mineralocorticoid receptor expressed in baculovirus infected insect cells incubated overnight by liquid scintillation counting analysis

[4] = biological target: T4, Mineralocorticoid receptor (Homo sapiens) (UniProt P08235); test: Antagonist activity at human wild-type mineralocorticoid receptor expressed in CHO-K1 cells assessed as inhibition of aldosterone-induced transcriptional activity incubated for 24 hrs in presence of 1 nM aldosterone by Steady-Glo reagent based reporter gene assay relative to control; format: cell-based; parameters: scale not given: the % may be the effect or the level left; settings: filed as antagonist
T4 sequence (whole entry): T3 sequence (P08235 whole entry)

CHO-K1 = test: Antagonist activity at human mineralocorticoid receptor S810L mutant expressed in CHO-K1 cells assessed as inhibition of aldosterone-induced transcriptional activity at 300 nM incubated for 24 hrs in presence of aldosterone at 0.5 nM by reporter gene assay relative to control; format: cell-based; parameters: scale not given: the % may be the effect or the level left; settings: filed as antagonist
Glucocorticoid receptor [5] = biological target: T5, Glucocorticoid receptor (Homo sapiens, UniProt P04150); test: biochemical
T5 sequence (P04150 whole entry): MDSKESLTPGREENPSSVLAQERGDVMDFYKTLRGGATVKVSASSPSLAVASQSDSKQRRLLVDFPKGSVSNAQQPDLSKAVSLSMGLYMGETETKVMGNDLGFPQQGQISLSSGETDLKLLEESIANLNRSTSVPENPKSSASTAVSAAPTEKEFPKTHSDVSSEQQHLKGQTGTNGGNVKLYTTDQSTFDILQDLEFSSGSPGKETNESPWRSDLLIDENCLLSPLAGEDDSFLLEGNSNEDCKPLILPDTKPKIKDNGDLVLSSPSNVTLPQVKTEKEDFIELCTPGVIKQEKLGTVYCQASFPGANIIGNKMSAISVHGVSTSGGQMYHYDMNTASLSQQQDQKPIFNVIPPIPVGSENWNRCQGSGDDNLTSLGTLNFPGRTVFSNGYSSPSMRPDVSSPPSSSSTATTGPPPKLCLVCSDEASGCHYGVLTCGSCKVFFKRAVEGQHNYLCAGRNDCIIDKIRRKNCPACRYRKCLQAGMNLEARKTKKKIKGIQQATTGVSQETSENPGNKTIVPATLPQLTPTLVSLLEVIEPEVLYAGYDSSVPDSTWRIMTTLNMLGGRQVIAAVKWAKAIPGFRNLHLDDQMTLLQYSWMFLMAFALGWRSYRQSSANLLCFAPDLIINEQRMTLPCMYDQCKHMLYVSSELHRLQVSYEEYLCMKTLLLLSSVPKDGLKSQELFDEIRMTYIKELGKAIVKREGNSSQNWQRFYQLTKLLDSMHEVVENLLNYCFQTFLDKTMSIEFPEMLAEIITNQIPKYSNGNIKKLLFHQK
Description: Displacement of [3H]-dexamethasone from recombinant full length human glucocorticoid receptor expressed in baculovirus infected insect cells incubated overnight by liquid scintillation counting analysis

CS(=O)(=O)Nc1ccc2c(c1)OC(c1ccccc1)C(=O)N2c1ccc(F)cc1 (centres undefined)
Ki (Glucocorticoid receptor [1]): 55.2 µM
Ki [2]: 0.25 µM
Ki [3]: 0.342 µM

CCN(c1ccccc1)c1ccc(NS(C)(=O)=O)cc1
Ki (Glucocorticoid receptor [1]): 45 µM
Ki [2]: 1.56 µM
Ki [3]: 0.607 µM

CC(C)(c1ccccc1)c1ccc(S(N)(=O)=O)cc1
Ki (Glucocorticoid receptor [1]): > 100 µM
Ki [2]: > 100 µM

CC1Oc2cc(NS(C)(=O)=O)ccc2N(c2ccc(F)cc2)C1=O (centres undefined)
Ki (Glucocorticoid receptor [1]): 136 µM
Ki [2]: 0.201 µM
Ki [3]: 0.16 µM

CN(c1ccccc1)c1ccc(NS(C)(=O)=O)cc1
Ki (Glucocorticoid receptor [1]): 47.2 µM
Ki [2]: 0.853 µM
Ki [3]: 0.735 µM

CS(=O)(=O)Nc1ccc(N(Cc2ccccc2)c2ccccc2)cc1
Ki (Glucocorticoid receptor [1]): 29.1 µM
Ki [2]: 0.357 µM
Ki [3]: 0.147 µM

CC1(C)CN(c2ccc(F)cc2)c2ccc(NS(C)(=O)=O)cc2O1
Ki (Glucocorticoid receptor [1]): 43.2 µM

CC(=O)Nc1ccc(C(C)(C)c2ccccc2)cc1
Ki (Glucocorticoid receptor [1]): > 100 µM
Ki [2]: > 100 µM

CNS(=O)(=O)c1ccc(C(C)(C)c2ccccc2)cc1
Ki (Glucocorticoid receptor [1]): > 100 µM
Ki [2]: 4.31 µM
Ki [3]: 1.37 µM

CS(=O)(=O)Nc1ccc2c(c1)OC1(CC1)C(=O)N2c1ccc(F)cc1
Ki (Glucocorticoid receptor [1]): > 100 µM
Ki [2]: 0.549 µM
Ki [3]: 0.808 µM

CS(=O)(=O)Nc1ccc(N(C(=O)c2ccccc2)c2ccc(F)cc2)cc1
Ki (Glucocorticoid receptor [1]): 41.5 µM

CS(=O)(=O)Nc1ccc(Nc2ccccc2)cc1
Ki (Glucocorticoid receptor [1]): > 100 µM
Ki [2]: > 100 µM

CCS(=O)(=O)Nc1ccc(C(C)(C)c2ccccc2)cc1
Ki (Glucocorticoid receptor [1]): 37.9 µM
Ki [2]: 3.77 µM
Ki [3]: 1.92 µM

CS(=O)(=O)Nc1ccc2c(c1)OC1(CCC1)C(=O)N2c1ccc(F)cc1
Ki (Glucocorticoid receptor [1]): > 100 µM
Ki [2]: 0.626 µM
Ki [3]: 0.152 µM

CN(C)S(=O)(=O)Nc1ccc(C(C)(C)c2ccccc2)cc1
Ki (Glucocorticoid receptor [1]): 29 µM
Ki [2]: 6.88 µM

CC(C)(c1ccccc1)c1cccc(NS(C)(=O)=O)c1
Ki (Glucocorticoid receptor [1]): 19.6 µM
Ki [2]: 12 µM

CC(C)(c1ccccc1)c1ccc(NS(C)(=O)=O)cc1
Ki (Glucocorticoid receptor [1]): 40 µM
Ki [2]: 1.96 µM
Ki [3]: 0.74 µM

CS(=O)(=O)Nc1ccc2c(c1)OCC(=O)N2c1ccc(F)cc1
Ki (Glucocorticoid receptor [1]): > 100 µM
Ki [2]: 1.75 µM

CC(=O)c1ccc(N(Cc2ccccc2)c2ccc(NS(C)(=O)=O)cc2)cc1
Ki (Glucocorticoid receptor [1]): 25.4 µM
Ki [2]: 5.67 µM

CS(=O)(=O)Nc1ccc(N(C(=O)c2ccccc2)c2ccccc2)cc1
Ki (Glucocorticoid receptor [1]): 22.2 µM
Ki [2]: 1.24 µM
Ki [3]: 1.27 µM

CC(C)(c1ccccc1)c1ccc(NS(=O)(=O)C(F)(F)F)cc1
Ki (Glucocorticoid receptor [1]): > 100 µM
Ki [2]: > 100 µM

CC(=O)S[C@@H]1CC2=CC(=O)CC[C@]2(C)[C@H]2CC[C@@]3(C)[C@@H](CC[C@@]34CCC(=O)O4)[C@H]12 [SPIRONOLACTONE]
Activity [4]: 98.3%
Activity (CHO-K1): 58.5%
IC50 (Glucocorticoid receptor [5]): 6.05 µM
